Key:
Assay in all cases: relative viability (nuclei count vs DMSO), 5 days (fraction); higher = more cells survive
[1] = tested on: ChaGo-K-1
How it was run: (§1)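 Medians of duplicate plates are given as relative viability. That measure is the nuclei count in treated wells divided by the count in vehicle wells. Counts were taken on 4× images of lung cancer cell lines in 1536-well plates, 5 days after pin-tool dosing the day after seeding with one drug alone or a fixed anchor-drug dose plus five library-drug doses (not always all listed) in √10 steps.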

[2] = tested on: EKVX
How it was run: as §1

[3] = tested on: EMC-BAC-2
How it was run: as §1

[4] = tested on: EPLC-272H
How it was run: as §1

[5] = tested on: H3255
How it was run: as §1

[6] = tested on: HARA
How it was run: as §1

[7] = tested on: HCC-15
How it was run: as §1

[8] = tested on: HCC-827
How it was run: as §1

[9] = tested on: LC-2-ad
How it was run: as §1

[10] = tested on: LCLC-103H
How it was run: as §1

[11] = tested on: LK-2
How it was run: as §1

[12] = tested on: NCI-H1648
How it was run: as §1

[13] = tested on: NCI-H1793
How it was run: as §1

[14] = tested on: NCI-H1944
How it was run: as §1

[15] = tested on: NCI-H2170
How it was run: as §1

[16] = tested on: NCI-H23
How it was run: as §1

[17] = tested on: NCI-H2405
How it was run: as §1

[18] = tested on: NCI-H3122
How it was run: as §1

[19] = tested on: NCI-H596
How it was run: as §1

[20] = tested on: RERF-LC-KJ
How it was run: as §1

[21] = tested on: SW 1573
How it was run: as §1

[22] = tested on: SW 900
How it was run: as §1

## C=C1C(=O)O[C@@H](CCCCCCCC)[C@@H]1C(=O)O [C-75] + O=C(CCCCCCC(=O)Nc1ccccc1)NO [Vorinostat] (partner 1 µM)
[1]; first compound 0.08 µM
  relative viability: 0.759
[1]; first compound 0.253 µM
  relative viability: 0.772
[1]; first compound 0.8 µM
  relative viability: 0.701
[1]; first compound 2.53 µM
  relative viability: 0.609
[1]; first compound 8 µM
  relative viability: 0.668
[2]; first compound 0.08 µM
  relative viability: 0.725
[2]; first compound 0.253 µM
  relative viability: 0.827
[2]; first compound 0.8 µM
  relative viability: 0.654
[2]; first compound 8 µM
  relative viability: 0.728
[3]; first compound 0.08 µM
  relative viability: 0.462
[3]; first compound 0.253 µM
  relative viability: 0.407
[3]; first compound 0.8 µM
  relative viability: 0.276
[3]; first compound 2.53 µM
  relative viability: 0.355
[3]; first compound 8 µM
  relative viability: 0.378
[4]; first compound 0.08 µM
  relative viability: 0.477
[4]; first compound 0.253 µM
  relative viability: 0.545
[4]; first compound 0.8 µM
  relative viability: 0.655
[4]; first compound 2.53 µM
  relative viability: 0.41
[4]; first compound 8 µM
  relative viability: 0.391
[5]; first compound 0.08 µM
  relative viability: 0.846
[5]; first compound 0.253 µM
  relative viability: 0.621
[5]; first compound 0.8 µM
  relative viability: 0.79
[5]; first compound 2.53 µM
  relative viability: 0.627
[5]; first compound 8 µM
  relative viability: 0.732
[6]; first compound 0.08 µM
  relative viability: 0.598
[6]; first compound 0.253 µM
  relative viability: 0.258
[6]; first compound 0.8 µM
  relative viability: 0.415
[6]; first compound 2.53 µM
  relative viability: 0.537
[6]; first compound 8 µM
  relative viability: 0.438
[7]; first compound 0.08 µM
  relative viability: 0.831
[7]; first compound 0.253 µM
  relative viability: 0.918
[7]; first compound 0.8 µM
  relative viability: 0.838
[7]; first compound 2.53 µM
  relative viability: 0.862
[7]; first compound 8 µM
  relative viability: 0.835
[8]; first compound 0.253 µM
  relative viability: 0.662
[8]; first compound 0.8 µM
  relative viability: 0.721
[8]; first compound 8 µM
  relative viability: 0.88
[9]; first compound 0.08 µM
  relative viability: 0.72
[9]; first compound 0.253 µM
  relative viability: 0.717
[9]; first compound 0.8 µM
  relative viability: 0.681
[9]; first compound 2.53 µM
  relative viability: 0.689
[9]; first compound 8 µM
  relative viability: 0.666
[10]; first compound 0.08 µM
  relative viability: 0.736
[10]; first compound 0.253 µM
  relative viability: 0.758
[10]; first compound 0.8 µM
  relative viability: 0.708
[10]; first compound 2.53 µM
  relative viability: 0.664
[10]; first compound 8 µM
  relative viability: 0.765
[11]; first compound 0.08 µM
  relative viability: 0.387
[11]; first compound 0.253 µM
  relative viability: 0.315
[11]; first compound 0.8 µM
  relative viability: 0.319
[11]; first compound 2.53 µM
  relative viability: 0.286
[11]; first compound 8 µM
  relative viability: 0.324
[12]; first compound 0.08 µM
  relative viability: 0.571
[12]; first compound 0.253 µM
  relative viability: 1.1
[12]; first compound 0.8 µM
  relative viability: 0.283
[12]; first compound 8 µM
  relative viability: 0.216
[13]; first compound 0.08 µM
  relative viability: 0.674
[13]; first compound 0.253 µM
  relative viability: 1.01
[13]; first compound 2.53 µM
  relative viability: 0.425
[13]; first compound 8 µM
  relative viability: 0.751
[14]; first compound 0.08 µM
  relative viability: 0.571
[14]; first compound 0.253 µM
  relative viability: 0.591
[14]; first compound 0.8 µM
  relative viability: 0.475
[14]; first compound 2.53 µM
  relative viability: 0.42
[14]; first compound 8 µM
  relative viability: 0.483
[15]; first compound 0.08 µM
  relative viability: 0.803
[15]; first compound 0.253 µM
  relative viability: 0.961
[15]; first compound 0.8 µM
  relative viability: 0.714
[15]; first compound 2.53 µM
  relative viability: 0.697
[15]; first compound 8 µM
  relative viability: 0.808
[16]; first compound 0.08 µM
  relative viability: 0.605
[16]; first compound 0.253 µM
  relative viability: 0.642
[16]; first compound 0.8 µM
  relative viability: 0.497
[16]; first compound 2.53 µM
  relative viability: 0.366
[16]; first compound 8 µM
  relative viability: 0.407
[17]; first compound 0.08 µM
  relative viability: 1
[17]; first compound 0.253 µM
  relative viability: 0.831
[17]; first compound 0.8 µM
  relative viability: 0.313
[17]; first compound 2.53 µM
  relative viability: 0.708
[17]; first compound 8 µM
  relative viability: 0.891
[18]; first compound 0.08 µM
  relative viability: 1.02
[18]; first compound 0.253 µM
  relative viability: 1.6
[18]; first compound 0.8 µM
  relative viability: 1.01
[18]; first compound 2.53 µM
  relative viability: 0.578
[18]; first compound 8 µM
  relative viability: 0.989
[19]; first compound 0.08 µM
  relative viability: 0.644
[19]; first compound 0.253 µM
  relative viability: 0.642
[19]; first compound 0.8 µM
  relative viability: 0.671
[19]; first compound 2.53 µM
  relative viability: 0.516
[19]; first compound 8 µM
  relative viability: 0.483
[20]; first compound 0.08 µM
  relative viability: 0.713
[20]; first compound 0.253 µM
  relative viability: 0.801
[20]; first compound 0.8 µM
  relative viability: 0.687
[20]; first compound 2.53 µM
  relative viability: 0.69
[20]; first compound 8 µM
  relative viability: 0.71
[21]; first compound 0.08 µM
  relative viability: 0.976
[21]; first compound 0.253 µM
  relative viability: 0.816
[21]; first compound 0.8 µM
  relative viability: 0.701
[21]; first compound 2.53 µM
  relative viability: 0.442
[21]; first compound 8 µM
  relative viability: 0.517
[22]; first compound 0.08 µM
  relative viability: 0.669
[22]; first compound 0.253 µM
  relative viability: 0.824
[22]; first compound 0.8 µM
  relative viability: 0.47
[22]; first compound 2.53 µM
  relative viability: 0.395
[22]; first compound 8 µM
  relative viability: 0.49
